Data reported in patent publication US20240316019A1 (Bayer Aktiengesellschaft, priority 2023, published 2024).

System: patients with acute non-cardioembolic ischemic stroke
Settings: 50 mg daily
Description: All participants were required to undergo at least two MRIs that met study requirements. In addition to the baseline MRI (obtained after the index stroke either before randomization or within 72 h after randomization), participants underwent a final study MRI at 26 weeks or as soon as possible after early termination of assigned study treatment. Patients were followed up for at least 26 weeks and up to 52 weeks and assessed for the occurrence of safety, efficacy, and adverse events at 2, 4, 8, 13, 20, 26, 32, 39, 46, and 52 (end of treatment) weeks after randomization, and again 2 weeks after the end of treatment visit. Adherence to assigned therapy was assessed by means of interview and pill count at each clinic visit.
The primary safety outcome was the composite of major bleeding and clinically relevant non-major bleeding, according to the criteria of the International Society on Thrombosis and Haemostasis (ISTH). […] Additional prespecified exploratory safety outcomes included haemorrhagic transformation within the qualifying stroke detected by baseline MRI performed post-study drug or on follow-up study MRIs based on the Heidelberg classification of severity (haemorrhagic infarct 1 or 2 or parenchymal haematoma 1 or 2). […]

## CC[C@@H](C(=O)Nc1ccc(C(N)=O)c(F)c1)n1cc(OC)c(-c2cc(Cl)ccc2-n2cc(C(F)(F)F)nn2)cc1=O [Compound A, (4S)-2^4-chloro-4-ethyl-7^3-fluoro-3^5-methoxy-3^2,5-dioxo-14-(trifluoromethyl)-3^2H-6-aza-3(4,1)-pyridina-1(1)-[1,2,3]triazola-2(1,2),7(1)-dibenzenaheptaphane-7^4-carboxamide]
  Primary intracerebral haemorrhages, % participants: 1%
  Primary intracerebral haemorrhages, n participants: three
